Consider 26 compounds from US20230391760A1, “HETEROCYCLIC GLP-1 AGONISTS” (Gasherbrum Bio, Inc., priority 2020, published 2023).

pEC50: −log10 of the molar value.

Sequence of GLP-1 Receptor (P43220 24-463, species assumed): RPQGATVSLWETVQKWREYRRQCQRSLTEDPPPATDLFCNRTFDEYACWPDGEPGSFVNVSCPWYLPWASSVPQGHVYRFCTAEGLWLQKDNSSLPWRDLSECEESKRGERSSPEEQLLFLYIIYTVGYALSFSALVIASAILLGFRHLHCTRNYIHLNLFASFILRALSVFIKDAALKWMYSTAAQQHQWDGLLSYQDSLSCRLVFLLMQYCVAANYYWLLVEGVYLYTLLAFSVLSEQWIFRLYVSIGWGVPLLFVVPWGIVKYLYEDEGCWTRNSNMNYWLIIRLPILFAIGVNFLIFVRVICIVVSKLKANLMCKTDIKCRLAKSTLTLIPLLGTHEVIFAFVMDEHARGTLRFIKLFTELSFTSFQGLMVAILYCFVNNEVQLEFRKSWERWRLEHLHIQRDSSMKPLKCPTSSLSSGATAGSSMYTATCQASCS

The assay concerns the target GLP-1 Receptor (Homo sapiens, UniProt P43220). In words: GLP-1R agonist cAMP stimulation assay (HEK293/GLP1R/CRE-LUC cells, cAMP dynamic 2 Kit). The assay is classed as cell-based. The following applies: HEK293/CRE-Luc cell line stably expressing the GLP-1 Receptor, 30 min at 37° C. The procedure: Activation of GLP-1 receptor is known to stimulate cyclic AMP (cAMP) production in cells which indicates primary coupling to the Gαs subunit of the G protein heterotrimeric complex. […] To optimize functional activity directed toward Gαs coupling, a HEK293/CRE-Luc cell line developed by HDB stably expressing the GLP-1 Receptor was used. 200×concentration of compound working solutions were prepared (Agilent Technologies Bravo) with 1/2 log serial dilution in 384-well Echo LDV plate (Labcyte, Cat #LP-0200). 50 nL/well 200× concentration of compound working solutions were moved to 384-well white low volume plate (Greiner,Cat #784075) using Labcyte ECHO550. 1×10^5 cells/mL HEK293/GLP1R/CRE-LUC(HD Biosciences) cell suspensions prepared with assay buffer[DPBS containing 0.5 mM IBMX(Sigma, Cat #15879) and 0.1% BSA (GENVIEW, Cat #FA016-100 g)], 10 uL cell suspensions were added to each well of previous generated assay plate which already contains 50 nl compound at 200×concentration using ThermoFisher Multidrop Combi (1000 cells/well). Seal the plate and incubate at 37° C. with 5% CO2 for 30 min. After incubation the cAMP assay signal was generated using cAMP dynamic 2 Kit (Cisbio). 5 μL cAMP-d2 working solution was added to each well, followed with 5 μL Anti-cAMP antibody-cryptate working solution added to each well using ThermoFisher Multidrop Combi. Incubate at room temperature for 1 hour protected from light.
For the compound “4-[2-(4-chloro-2-fluorophenyl)-2-methyl-2H-1,3-benzodioxol-4-yl]-1-[(3-{[(2S)-oxolan-2-yl]methyl}-6-[5-(trifluoromethyl)-4H-1,2,4-triazol-3-yl]-3H-imidazo[4,5-b]pyridin-2-yl)methyl]piperidine [Compound 247a]”, the pEC50 (usually the EC50 on a negative log10 scale, so that one unit is a factor of ten) is 8.47.

`CC1(c2ccc(Cl)cc2F)Oc2cccc(C3CCN(Cc4nc5cc(-c6nnc(C(F)(F)F)[nH]6)cnc5n4C[C@@H]4CCO4)CC3)c2O1` (mixture of isomers) [Compound 224a, 4-[2-(4-chloro-2-fluorophenyl)-2-methyl-2H-1,3-benzodioxol-4-yl]-1-[(3-{[(2S)-oxetan-2-yl]methyl}-6-[5-(trifluoromethyl)-4H-1,2,4-triazol-3-yl]-3H-imidazo[4,5-b]pyridin-2-yl)methyl]piperidine] had a pEC50 of 10.74. Compared with the last compound, the pEC50 is 2.27 log units higher.

Compound `CC1(c2ccc(Cl)cc2F)Oc2cccc(C3CCN(Cc4nc5cc(-c6nnc(C(F)(F)F)[nH]6)ccc5n4C[C@@H]4CCO4)CC3)c2O1` (mixture of isomers) [Compound 229a, 2-({4-[2-(4-chloro-2-fluorophenyl)-2-methyl-2H-1,3-benzodioxol-4-yl]piperidin-1-yl}methyl)-1-{[(2S)-oxetan-2-yl]methyl}-5-[5-(trifluoromethyl)-4H-1,2,4-triazol-3-yl]-1H-1,3-benzodiazole] showed a pEC50 of 10.34.

As for `CC1(c2ccc(Cl)cc2F)Oc2cccc(C3CCN(Cc4nc5cc(-c6noc(=O)[nH]6)ccc5n4C[C@@H]4CCO4)CC3)c2O1` (mixture of isomers) [Compound 239a, 3-(2-((4-(2-(4-chloro-2-fluorophenyl)-2-methylbenzo[d][1,3]dioxol-4-yl)piperidin-1-yl)methyl)-1-(((S)-oxetan-2-yl)methyl)-1H-benzo[d]imidazol-5-yl)-1,2,4-oxadiazol-5(4H)-one], the pEC50 was 10.15.

On to `CC1(c2ccc(Cl)cn2)Oc2cccc(C3CCN(Cc4nc5cc(-c6n[nH]c(C(F)(F)F)n6)cnc5n4C[C@@H]4CCO4)CC3)c2O1` (mixture of isomers) [Compound 333a, 5-chloro-2-(2-methyl-4-{1-[(3-{[(2S)-oxetan-2-yl]methyl}-6-[5-(trifluoromethyl)-4H-1,2,4-triazol-3-yl]-3H-imidazo[4,5-b]pyridin-2-yl)methyl]piperidin-4-yl}-2H-1,3-benzodioxol-2-yl)pyridine], for which the pEC50 is 10.52.

In turn, `O=C(Nc1ccc2c(c1)nc(CN1CCC(c3cccc(OCc4ccc(Cl)cc4F)n3)CC1)n2C[C@@H]1CCO1)C1CCCOC1` (single isomer, unassigned) [Compound 154b] had a pEC50 of 10.13.

For the compound `O=C(Nc1ccc2c(c1)nc(CN1CCC(c3cccc(OCc4ccc(Cl)cc4F)n3)CC1)n2C[C@@H]1CCO1)C1CCCOC1` (single isomer, unassigned) [Compound 154c], the pEC50 was 8.82.

Turning to `CC1(c2ccc(Cl)cc2F)Oc2cccc(C3CCN(Cc4nc5cc(-c6nnc(C(F)(F)F)[nH]6)cnc5n4C[C@@H]4CCO4)CC3)c2O1` (single isomer, unassigned) [Compound 224b], the pEC50 was 8.77.

`CC1(c2ccc(Cl)cc2F)Oc2cccc(C3CCN(Cc4nc5cc(-c6nnc(C(F)(F)F)[nH]6)cnc5n4C[C@@H]4CCO4)CC3)c2O1` (single isomer, unassigned) [Compound 224c] showed a pEC50 of 10.85.

For the compound `CC1(c2ccc(Cl)cc2F)Oc2cccc(C3CCN(Cc4nc5cc(-c6nnc(C(F)(F)F)[nH]6)ccc5n4C[C@@H]4CCO4)CC3)c2O1` (single isomer, unassigned) [Compound 229b], the pEC50 is 8.05. Against the preceding compound, the pEC50 is 2.80 log units lower.

`CC1(c2ccc(Cl)cc2F)Oc2cccc(C3CCN(Cc4nc5cc(-c6nnc(C(F)(F)F)[nH]6)ccc5n4C[C@@H]4CCO4)CC3)c2O1` (single isomer, unassigned) [Compound 229c] had a pEC50 of 10.40.

With `CC1(c2ccc(Cl)cc2F)Oc2cccc(C3CCN(Cc4nc5cc(-c6noc(=O)[nH]6)ccc5n4C[C@@H]4CCO4)CC3)c2O1` (single isomer, unassigned) [Compound 239b], the pEC50 is 10.40.

For `CC1(c2ccc(Cl)cc2F)Oc2cccc(C3CCN(Cc4nc5cc(-c6noc(=O)[nH]6)ccc5n4C[C@@H]4CCO4)CC3)c2O1` (single isomer, unassigned) [Compound 239c], the pEC50 is 9.26.

Turning to `C[C@]1(c2ccc(Cl)cn2)Oc2cccc(C3CCN(Cc4nc5cc(-c6n[nH]c(C(F)(F)F)n6)cnc5n4C[C@@H]4CCO4)CC3)c2O1` (single isomer, unassigned) [Compound 333b], the pEC50 is 10.54.

Consider `C[C@]1(c2ccc(Cl)cn2)Oc2cccc(C3CCN(Cc4nc5cc(-c6n[nH]c(C(F)(F)F)n6)cnc5n4C[C@@H]4CCO4)CC3)c2O1` (single isomer, unassigned) [Compound 333c], for which the pEC50 is 9.02.

`CC(=O)Nc1ccc2c(c1)nc(CN1CCC(c3cccc(OCc4ccc(Cl)cc4F)n3)CC1)n2C[C@@H]1CCO1` [Compound 101a, (S)—N-(2-((4-(6-((4-chloro-2-fluorobenzyl)oxy)pyridin-2-yl)piperidin-1-yl)methyl)-1-(oxetan-2-ylmethyl)-1H-benzo[d]imidazol-5-yl)acetamide] gave a pEC50 of 8.96.

Consider `CCC(=O)Nc1ccc2c(c1)nc(CN1CCC(c3cccc(OCc4ccc(Cl)cc4F)n3)CC1)n2C[C@@H]1CCO1` [Compound 102a, (S)—N-(2-((4-(6-((4-chloro-2-fluorobenzyl)oxy)pyridin-2-yl)piperidin-1-yl)methyl)-1-(oxetan-2-ylmethyl)-1H-benzo[d]imidazol-5-yl)propionamide], for which the pEC50 is 9.27. Against the preceding compound, the pEC50 is 0.31 log units higher.

`O=C(Nc1ccc2c(c1)nc(CN1CCC(c3cccc(OCc4ccc(Cl)cc4F)n3)CC1)n2C[C@@H]1CCO1)C1CC1` [Compound 103a, (S)—N-(2-((4-(6-((4-chloro-2-fluorobenzyl)oxy)pyridin-2-yl)piperidin-1-yl)methyl)-1-(oxetan-2-ylmethyl)-1H-benzo[d]imidazol-5-yl)cyclopropanecarboxamide] gave a pEC50 of 9.51. This pEC50 lies 0.24 log units higher than the previous one.

`O=C(Nc1ccc2c(c1)nc(CN1CCC(c3cccc(OCc4ccc(Cl)cc4F)n3)CC1)n2C[C@@H]1CCO1)C1COC1` [Compound 104a, (S)—N-(2-((4-(6-((4-chloro-2-fluorobenzyl)oxy)pyridin-2-yl)piperidin-1-yl)methyl)-1-(oxetan-2-ylmethyl)-1H-benzo[d]imidazol-5-yl)oxetane-3-carboxamide] had a pEC50 of 9.68.

In turn, `CC(C)C(=O)Nc1ccc2c(c1)nc(CN1CCC(c3cccc(OCc4ccc(Cl)cc4F)n3)CC1)n2C[C@@H]1CCO1` [Compound 105a, (S)—N-(2-((4-(6-((4-chloro-2-fluorobenzyl)oxy)pyridin-2-yl)piperidin-1-yl)methyl)-1-(oxetan-2-ylmethyl)-1H-benzo[d]imidazol-5-yl)isobutyramide] showed a pEC50 of 9.76. The pEC50 values of the last two compounds are within 0.2 log units of each other.

In turn, `O=C(CC1CC1)Nc1ccc2c(c1)nc(CN1CCC(c3cccc(OCc4ccc(Cl)cc4F)n3)CC1)n2C[C@@H]1CCO1` [Compound 106a, (S)—N-(2-((4-(6-((4-chloro-2-fluorobenzyl)oxy)pyridin-2-yl)piperidin-1-yl)methyl)-1-(oxetan-2-ylmethyl)-1H-benzo[d]imidazol-5-yl)-2-cyclopropylacetamide] had a pEC50 of 8.92.

On to `COCCC(=O)Nc1ccc2c(c1)nc(CN1CCC(c3cccc(OCc4ccc(Cl)cc4F)n3)CC1)n2C[C@@H]1CCO1` [Compound 107a, (S)—N-(2-((4-(6-((4-chloro-2-fluorobenzyl)oxy)pyridin-2-yl)piperidin-1-yl)methyl)-1-(oxetan-2-ylmethyl)-1H-benzo[d]imidazol-5-yl)-3-methoxypropanamide], for which the negative logarithm of the EC50 (pEC50) was 9.47.

`CS(=O)(=O)Nc1ccc2c(c1)nc(CN1CCC(c3cccc(OCc4ccc(Cl)cc4F)n3)CC1)n2C[C@@H]1CCO1` [Compound 108a, (S)—N-(2-((4-(6-((4-chloro-2-fluorobenzyl)oxy)pyridin-2-yl)piperidin-1-yl)methyl)-1-(oxetan-2-ylmethyl)-1H-benzo[d]imidazol-5-yl)methanesulfonamide] showed a negative-log EC50 (pEC50) of 6.81.

For the compound `O=C(O)COc1ccc2c(c1)nc(CN1CCC(c3cccc(OCc4ccc(Cl)cc4F)n3)CC1)n2C[C@@H]1CCO1` [Compound 109a, (S)-2-((2-((4-(6-((4-chloro-2-fluorobenzyl)oxy)pyridin-2-yl)piperidin-1-yl)methyl)-1-(oxetan-2-ylmethyl)-1H-benzo[d]imidazol-5-yl)oxy)acetic acid], the pEC50 was 7.88.

`O=C(O)Cc1ccc2c(c1)nc(CN1CCC(c3cccc(OCc4ccc(Cl)cc4F)n3)CC1)n2C[C@@H]1CCO1` [Compound 110a, (S)-2-(2-((4-(6-((4-chloro-2-fluorobenzyl)oxy)pyridin-2-yl)piperidin-1-yl)methyl)-1-(oxetan-2-ylmethyl)-1H-benzo[d]imidazol-5-yl)acetic acid]: the negative-log EC50 (pEC50) was 7.80. The pEC50 values of the last two compounds are within 0.2 log units of each other.

On to `O=C(O)c1ccc2c(c1)nc(CN1CC=C(c3cccc(OCc4ccc(Cl)cc4F)n3)CC1)n2C[C@@H]1CCO1` [Compound 111a, (S)-2-((6-((4-chloro-2-fluorobenzyl)oxy)-3′,6′-dihydro-[2,4′-bipyridin]-1′(2′H)-yl)methyl)-1-(oxetan-2-ylmethyl)-1H-benzo[d]imidazole-5-carboxylic acid], for which the pEC50 is 8.96. Compared with the last compound, the pEC50 is 1.16 log units higher.
